What was measured:
[1] = target: T1, PLTP (Homo sapiens, UniProt P55058); assay: Determination of PLTP inhibition activity (radiolabelled phospholipid liposome to HDL transfer with plasma); format: biochemical; conditions: for inhibition at 150 µM: Concentration of compounds 150 μM; for inhibition at 250 µM: Concentration of compounds 250 μM
T1 construct: from tissue
Description: 30 μl (about 1000 cpm/μl) phospholipids liposome, 30 μl HDL ([…]), 337 μl TSE and 3 μl plasma were mixed, incubated in 37° C. water-bath for 1 hour, and then added 300 μl of a settling solution (50 ml solution preparation: 5.36 ml 5N NaCl, 9.075 ml 2M MnCl2 and 46 mg liver phospholipid were mixed, added water to 50 ml), the solution was stood at room temperature for 10 minutes, rotated at high speed for 10 minutes (to remove phospholipids liposome), 500 μl of the supernatant was sampled and counted. PLTP activity (cpm/h/3 μl)=sample cpm-background cpm.

[2] = target: T2, CETP (Homo sapiens, UniProt P11597); assay: Determination of CETP inhibition activity (fluorescent donor/acceptor transfer); format: biochemical; conditions: Concentration of compounds 500 μM; read-out: CETP inhibition activity Inhibition rate(%)
T2 sequence (P11597 18-493): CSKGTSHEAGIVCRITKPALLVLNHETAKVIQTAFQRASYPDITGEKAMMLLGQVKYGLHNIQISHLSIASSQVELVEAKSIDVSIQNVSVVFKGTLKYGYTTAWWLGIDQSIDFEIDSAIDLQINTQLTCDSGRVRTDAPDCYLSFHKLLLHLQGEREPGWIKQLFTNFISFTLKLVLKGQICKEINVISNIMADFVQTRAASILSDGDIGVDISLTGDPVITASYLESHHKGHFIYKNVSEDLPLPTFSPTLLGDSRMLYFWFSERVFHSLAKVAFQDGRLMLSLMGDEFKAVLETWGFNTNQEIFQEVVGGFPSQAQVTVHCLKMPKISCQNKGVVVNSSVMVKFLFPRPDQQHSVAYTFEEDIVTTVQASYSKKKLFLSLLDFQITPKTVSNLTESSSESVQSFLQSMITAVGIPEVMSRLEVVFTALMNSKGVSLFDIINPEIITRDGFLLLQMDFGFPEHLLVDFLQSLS
Description: A mixture containing 3 μl of a donor, 9 μl of an acceptor (250 μg protein), 3 μl of CETP solution and 85 μl of an analytic buffer, 10 mM Tris, 0.15 M NaCl and 2 mM EDTA, pH 7.4 was incubated at 37° C. for 0.5 hours, the fluorescence intensity was determined on Victor 3 double illuminometer/fluorescence counter (Perkin Elmer) carrying […] light wave length.

[3] = read-out: PLTP inhibition activity Inhibition rate(%)

T1 sequence (P55058 18-493, species assumed): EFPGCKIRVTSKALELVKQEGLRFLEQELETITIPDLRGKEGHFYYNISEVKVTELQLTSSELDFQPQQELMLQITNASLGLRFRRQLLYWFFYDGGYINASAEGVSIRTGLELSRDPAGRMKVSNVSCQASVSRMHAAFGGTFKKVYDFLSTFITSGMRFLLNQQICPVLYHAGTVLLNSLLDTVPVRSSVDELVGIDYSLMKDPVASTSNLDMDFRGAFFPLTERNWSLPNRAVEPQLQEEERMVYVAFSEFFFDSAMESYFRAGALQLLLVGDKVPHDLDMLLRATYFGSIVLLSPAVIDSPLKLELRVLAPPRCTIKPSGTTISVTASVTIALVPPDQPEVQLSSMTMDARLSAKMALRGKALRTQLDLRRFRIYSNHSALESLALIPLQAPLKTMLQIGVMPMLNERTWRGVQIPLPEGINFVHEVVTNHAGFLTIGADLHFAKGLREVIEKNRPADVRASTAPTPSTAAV

Row | Compound | IC50 [1] [µM] | inhibition at 150 µM [1, 3] [%] | inhibition at 500 µM [2] [%] | melting point [°C] | inhibition at 250 µM [1, 3] [%] | inhibition at 500 µM ([1]; Concentration of compounds 500 μM, read-out: PLTP inhibition activity Inhibition rate(%)) [%]
1 | O=C(Nc1nc(-c2ccc(O)cc2)c(Cc2ccccc2)s1)c1cc(O)c(O)c(O)c1 [Example 41, N-[5-benzyl-4-(4-hydroxy-phenyl)-thiazol-2-yl]-3,4,5-trihydroxy-benzamide] | 15 | 89.4 | 44.1 | 245 to 246 | – | –
2 | COc1ccc(C(=O)Nc2nc(-c3ccc(O)cc3)c(Cc3ccccc3)s2)cc1 [Example 40, N-[5-benzyl-4-(4-hydroxy-phenyl)-thiazol-2-yl]-4-methoxy-benzamide] | – | 0 | 71.6 | 124 to 125 | – | –
3 | O=C(Nc1nc(-c2ccc(O)cc2)c(Cc2ccccc2)s1)c1ccc(O)cc1O [Example 38, N-[5-benzyl-4-(4-hydroxy-phenyl)-thiazol-2-yl]-2,4-dihydroxy-benzamide] | – | 11.5 | 88 | 217 to 219 | – | –
4 | COc1ccc(-c2nc(N)sc2CCc2ccccc2)cc1 [Example 57, 4-(4-methoxy-phenyl)-5-phenylethyl-thiazol-2-ylamine] | – | – | 75.8 | 143 to 144 | 24 | –
5 | O=C(Nc1nc(-c2ccc(F)cc2)c(Cc2ccc([N+](=O)[O-])cc2)s1)c1ccc(O)c(O)c1 [Example 31, N-[4-(4-fluoro-phenyl)-5-(4-nitro-benzyl)-thiazol-2-yl]-3,4-dihydroxy-benzamide] | 75 | – | 0 | 276 to 278 | 100 | –
6 | COc1ccc(-c2nc(N)sc2Cc2ccc(F)cc2)cc1 [Example 21, 5-(4-fluoro-benzyl)-4-(4-methoxy-phenyl)-thiazol-2-ylamine] | – | – | 52.8 | 199 to 201 | 11.5 | –
7 | O=C(Nc1nc(-c2ccc(O)cc2)c(Cc2ccc(F)cc2)s1)c1ccc(O)c(O)c1 [Example 33, N-[5-(4-fluoro-benzyl)-4-(4-hydroxy-phenyl)-thiazol-2-yl]-3,4-dihydroxy-benzamide] | 100 | – | 9.2 | 154 to 155 | 73.2 | –
8 | CCCCc1sc(NC(=O)c2cc(O)c(O)c(O)c2)nc1-c1ccc(O)cc1 [Example 66, N-[5-n-butyl-4-(4-hydroxy-phenyl)-thiazol-2-yl]-3,4,5-trihydroxy-benzamide] | 75 | – | 27.3 | 119 to 120 | 100 | –
9 | O=C(Nc1nc(-c2ccc(O)cc2)c(CC2CCCCC2)s1)c1ccc(O)c(O)c1 [Example 49, N-[5-cyclohexylmethyl-4-(4-hydroxy-phenyl)-thiazol-2-yl]-3,4-dihydroxy-benzamide] | 35 | 81.6 | 6 | 133 to 134 | – | –
10 | O=C(Nc1nc(-c2ccc(O)cc2)c(Cc2ccccc2)s1)c1ccc(Cl)cc1 [Example 8, N-[5-benzyl-4-(4-hydroxy-phenyl)-thiazol-2-yl]-4-chloro-benzamide] | – | 0 | 80.4 | 109 to 110 | – | –
11 | CCCCc1sc(NC(=O)c2ccc(O)c(O)c2)nc1-c1ccc(O)cc1 [Example 65, N-[5-n-butyl-4-(4-hydroxy-phenyl)-thiazol-2-yl]-3,4-dihydroxy-benzamide] | 75 | – | 0 | 189 to 190 | 93.4 | –
12 | Cc1sc(NC(=O)c2ccc(O)c(O)c2)nc1-c1ccc(O)cc1 [Example 56, 3,4-dihydroxy-N-[4-(4-hydroxy-phenyl)-5-methyl-thiazol-2-yl]-benzamide] | 75 | – | 58.7 | – | 71.9 | –
13 | O=C(Nc1nc(-c2ccc(O)cc2)c(Cc2ccc([N+](=O)[O-])cc2)s1)c1ccc(O)c(O)c1 [Example 34, 3,4-dihydroxy-N-[4-(4-hydroxy-phenyl)-5-(4-nitro-benzyl)-thiazol-2-yl]-benzamide] | 100 | – | 30.4 | 195 to 196 | 67.6 | –
14 | O=C(Nc1nc(-c2ccc(O)cc2)c(CCc2ccccc2)s1)c1ccc(O)c(O)c1 [Example 60, 3,4-dihydroxy-N-[4-(4-hydroxy-phenyl)-5-phenylethyl-thiazol-2-yl]-benzamide] | 35 | – | 0 | 208 to 209 | 97 | –
15 | O=C(Nc1nc(-c2ccccc2)c(Cc2ccc([N+](=O)[O-])cc2)s1)c1ccc(O)c(O)c1 [Example 32, 3,4-dihydroxy-N-[5-(4-nitro-benzyl)-4-phenyl-thiazol-2-yl]-benzamide] | 75 | – | 0 | – | 100 | –
16 | COc1ccc(-c2nc(N3CCNCC3)sc2Cc2ccccc2)cc1.Cl.Cl.Cl [Example 72, 1-[5-benzyl-4-(4-methoxy-phenyl)-thiazol-2-yl]-piperazine trihydrochloride] | – | – | 74.5 | 111 to 112 | – | 100
17 | O=C(Nc1nc(-c2ccc(O)cc2)c(CC2CCCCC2)s1)c1cc(O)c(O)c(O)c1 [Example 51, N-[5-cyclohexylmethyl-4-(4-hydroxy-phenyl)-thiazol-2-yl]-3,4,5-trihydroxy-benzamide] | 18 | – | 20.9 | 238 to 239 | 100 | –
18 | Oc1ccc(-c2nc(N3CCNCC3)sc2Cc2ccccc2)cc1 [Example 75, 4-(5-benzyl-2-piperazin-4-yl-thiazol-4-yl)-phenol] | – | – | – | 222 to 223 | – | –
19 | COc1ccc(C(=O)Nc2nc(-c3ccc(OC)cc3)c(Cc3ccccc3)s2)cc1 [Example 27, N-[5-benzyl-4-(4-methoxy-phenyl)-thiazol-2-yl]-4-methoxy-benzamide] | – | – | – | 58 to 59 | – | –
20 | COc1ccc(-c2nc(NC(=O)c3ccc(F)cc3)sc2Cc2ccc([N+](=O)[O-])cc2)cc1 [Example 10, 4-fluoro-N-[4-(4-methoxy-phenyl)-5-(4-nitro-benzyl)-thiazol-2-yl]-benzamide] | – | – | – | 188 to 189 | – | –
21 | O=C(Nc1nc(-c2ccc(O)cc2)c(Cc2ccccc2)s1)c1ccccc1O [Example 39, N-[5-benzyl-4-(4-hydroxy-phenyl)-thiazol-2-yl]-2-hydroxy-benzamide] | – | – | – | 279 to 280 | – | –
22 | COc1ccc(-c2nc(NC(=O)c3ccc(OC)c(OC)c3)sc2Cc2ccc(F)cc2)cc1 [Example 30, N-[5-(4-fluoro-benzyl)-4-(4-methoxy-phenyl)-thiazol-2-yl]-3,4-dimethoxy-benzamide] | – | – | – | 140 to 142 | – | –
23 | COc1ccc(-c2nc(NC(=O)c3cc(OC)c(OC)c(OC)c3)sc2Cc2ccccc2)cc1 [Example 37, N-[5-benzyl-4-(4-methoxy-phenyl)-thiazol-2-yl]-3,4,5-trimethoxy-benzamide] | – | – | – | 157 to 158 | – | –
24 | O=C(Nc1nc(-c2ccc(O)cc2)c(Cc2ccccc2)s1)c1cccc(O)c1 [Example 44, N-[5-benzyl-4-(4-hydroxy-phenyl)-thiazol-2-yl]-3-hydroxy-benzamide] | – | – | – | 233 to 234 | – | –
25 | COc1ccc(-c2nc(NC(=O)c3ccc(OC)cc3OC)sc2Cc2ccccc2)cc1 [Example 35, N-[5-benzyl-4-(4-methoxy-phenyl)-thiazol-2-yl]-2,4-dimethoxy-benzamide] | – | – | – | 196 to 197 | – | –

— patent US8053581B2, “Trisubstituted thiazole compounds, preparations methods, pharmaceutical compositions and medicals uses thereof” (Institute of Pharmacology and Toxicology Academy of …, priority 2006, dated 2011)
